Six molecules from ChEMBL document CHEMBL1153227, “2,3,5-Trisubstituted pyridines as selective AKT inhibitors. Part II: Improved drug-like properties and kinase selectivity from azaindazoles” (Bioorg Med Chem Lett, 2010) can be followed below.

≈ marks a conversion by molar mass, not a printed value. Calls of active or inactive are those of the source. The rule behind the calls is not given here.

The target in data set [1] is RAC-alpha serine/threonine-protein kinase (Homo sapiens, UniProt P31749). Description: Inhibition of AKT1.
RAC-alpha serine/threonine-protein kinase, sequence (P31749 whole entry): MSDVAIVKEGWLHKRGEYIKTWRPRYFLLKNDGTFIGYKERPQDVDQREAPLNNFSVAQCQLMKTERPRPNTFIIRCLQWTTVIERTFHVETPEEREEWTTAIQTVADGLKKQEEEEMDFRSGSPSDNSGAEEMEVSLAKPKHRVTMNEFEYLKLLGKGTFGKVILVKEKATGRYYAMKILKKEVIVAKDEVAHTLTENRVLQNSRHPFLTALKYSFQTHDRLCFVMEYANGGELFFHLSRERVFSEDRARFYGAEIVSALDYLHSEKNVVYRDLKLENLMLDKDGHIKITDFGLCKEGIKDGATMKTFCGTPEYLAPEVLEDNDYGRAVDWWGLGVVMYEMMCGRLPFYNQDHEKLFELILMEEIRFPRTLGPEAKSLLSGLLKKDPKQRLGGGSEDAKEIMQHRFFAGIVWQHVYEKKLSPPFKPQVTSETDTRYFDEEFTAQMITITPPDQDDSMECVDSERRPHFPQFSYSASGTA
Data set [2] concerns the target RAC-beta serine/threonine-protein kinase (Homo sapiens, UniProt P31751). Kind of data set: Inhibition of AKT2.
The target in data set [3] is RAC-gamma serine/threonine-protein kinase (Homo sapiens, UniProt Q9Y243). Kind of data set: Inhibition of AKT3.
RAC-gamma serine/threonine-protein kinase, sequence (Q9Y243 whole entry): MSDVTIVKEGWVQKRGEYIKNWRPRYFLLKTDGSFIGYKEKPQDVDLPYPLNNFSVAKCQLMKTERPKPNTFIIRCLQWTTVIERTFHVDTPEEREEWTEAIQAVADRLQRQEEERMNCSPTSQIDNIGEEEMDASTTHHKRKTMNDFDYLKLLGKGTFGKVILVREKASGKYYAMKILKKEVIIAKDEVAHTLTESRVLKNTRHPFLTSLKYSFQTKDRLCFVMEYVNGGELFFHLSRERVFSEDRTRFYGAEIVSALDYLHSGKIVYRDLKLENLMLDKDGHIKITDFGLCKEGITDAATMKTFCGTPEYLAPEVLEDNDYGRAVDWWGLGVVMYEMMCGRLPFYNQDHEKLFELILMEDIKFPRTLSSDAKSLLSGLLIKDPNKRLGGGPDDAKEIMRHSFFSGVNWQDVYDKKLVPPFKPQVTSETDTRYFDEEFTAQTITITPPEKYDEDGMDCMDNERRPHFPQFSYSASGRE
Another data set deals with BT-474. Kind of data set: Cytotoxicity against human BT474 cells. The class given is functional, cell-based.
Another data set has as its system LNCaP. Description: Cytotoxicity against human LNCAP cells. The class given is functional, cell-based.
A further data set has as its system HFF. Description: Cytotoxicity against HFF cells. Particulars: Homo sapiens. The class given is cell-based.
For another data set, the target named is Cytochrome P450 3A4 (Homo sapiens, UniProt P08684). Description: Inhibition of CYP3A4. The class given is ADME.
Cytochrome P450 3A4, sequence (P08684 whole entry): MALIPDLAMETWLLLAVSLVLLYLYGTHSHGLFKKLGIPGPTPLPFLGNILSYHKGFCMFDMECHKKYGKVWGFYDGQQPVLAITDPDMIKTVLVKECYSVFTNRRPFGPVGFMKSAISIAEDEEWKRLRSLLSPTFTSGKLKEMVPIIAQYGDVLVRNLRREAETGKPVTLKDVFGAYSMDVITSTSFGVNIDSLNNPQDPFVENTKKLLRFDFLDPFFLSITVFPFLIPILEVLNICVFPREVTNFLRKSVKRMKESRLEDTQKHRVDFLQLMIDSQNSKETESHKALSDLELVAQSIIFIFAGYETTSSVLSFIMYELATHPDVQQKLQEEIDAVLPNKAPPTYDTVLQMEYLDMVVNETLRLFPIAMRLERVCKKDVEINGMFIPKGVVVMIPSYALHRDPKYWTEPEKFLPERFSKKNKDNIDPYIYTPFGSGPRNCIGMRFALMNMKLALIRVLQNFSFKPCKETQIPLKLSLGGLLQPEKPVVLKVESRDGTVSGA
The nature of data set [4]: Protein binding in SCID mouse plasma. Format: ADME, cell-free. Particulars: read-out: PPB (converted).
A short description of data set [5]: Solubility of the compound. The class given is physicochemical.
For data set [6], the target named is Rho-associated protein kinase 1 (Homo sapiens, UniProt Q13464). Kind of data set: Inhibition of ROCK1.
Rho-associated protein kinase 1, sequence (Q13464 whole entry): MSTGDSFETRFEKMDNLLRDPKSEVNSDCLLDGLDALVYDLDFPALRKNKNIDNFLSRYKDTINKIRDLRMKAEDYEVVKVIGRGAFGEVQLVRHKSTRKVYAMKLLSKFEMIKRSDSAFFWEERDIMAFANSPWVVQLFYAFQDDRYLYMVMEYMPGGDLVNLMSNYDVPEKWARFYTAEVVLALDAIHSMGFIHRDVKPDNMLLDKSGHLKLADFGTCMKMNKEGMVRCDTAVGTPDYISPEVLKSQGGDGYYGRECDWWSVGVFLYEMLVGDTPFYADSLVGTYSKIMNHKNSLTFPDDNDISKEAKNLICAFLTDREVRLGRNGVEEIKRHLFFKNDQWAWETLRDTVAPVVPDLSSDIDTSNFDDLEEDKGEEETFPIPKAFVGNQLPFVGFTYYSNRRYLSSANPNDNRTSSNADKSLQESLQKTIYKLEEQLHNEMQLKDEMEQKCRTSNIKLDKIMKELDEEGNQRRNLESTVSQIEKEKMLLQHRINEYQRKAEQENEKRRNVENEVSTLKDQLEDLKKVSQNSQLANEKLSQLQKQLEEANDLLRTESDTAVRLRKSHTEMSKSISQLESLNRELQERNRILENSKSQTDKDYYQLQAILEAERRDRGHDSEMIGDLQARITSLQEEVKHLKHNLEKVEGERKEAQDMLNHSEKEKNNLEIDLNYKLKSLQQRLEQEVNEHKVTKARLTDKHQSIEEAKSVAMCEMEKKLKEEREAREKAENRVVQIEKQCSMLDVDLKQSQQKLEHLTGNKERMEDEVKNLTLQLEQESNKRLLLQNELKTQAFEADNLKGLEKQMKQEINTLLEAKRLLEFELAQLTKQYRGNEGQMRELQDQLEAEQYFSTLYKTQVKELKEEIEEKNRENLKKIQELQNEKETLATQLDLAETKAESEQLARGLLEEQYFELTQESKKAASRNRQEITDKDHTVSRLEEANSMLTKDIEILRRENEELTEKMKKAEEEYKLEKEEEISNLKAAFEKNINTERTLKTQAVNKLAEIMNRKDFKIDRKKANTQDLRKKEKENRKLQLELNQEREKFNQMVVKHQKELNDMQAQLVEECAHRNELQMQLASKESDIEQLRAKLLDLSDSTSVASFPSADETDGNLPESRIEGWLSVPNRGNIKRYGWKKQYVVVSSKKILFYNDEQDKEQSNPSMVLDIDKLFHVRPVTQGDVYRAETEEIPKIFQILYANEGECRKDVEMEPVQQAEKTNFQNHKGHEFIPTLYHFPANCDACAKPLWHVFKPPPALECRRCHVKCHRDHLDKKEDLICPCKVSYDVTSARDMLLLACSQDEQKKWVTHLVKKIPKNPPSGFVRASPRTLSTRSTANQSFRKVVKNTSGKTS
Data set [7] deals with Ribosomal protein S6 kinase beta-1 (Homo sapiens, UniProt P23443). Kind of data set: Inhibition of P70S6K.
Ribosomal protein S6 kinase beta-1, sequence (P23443 whole entry): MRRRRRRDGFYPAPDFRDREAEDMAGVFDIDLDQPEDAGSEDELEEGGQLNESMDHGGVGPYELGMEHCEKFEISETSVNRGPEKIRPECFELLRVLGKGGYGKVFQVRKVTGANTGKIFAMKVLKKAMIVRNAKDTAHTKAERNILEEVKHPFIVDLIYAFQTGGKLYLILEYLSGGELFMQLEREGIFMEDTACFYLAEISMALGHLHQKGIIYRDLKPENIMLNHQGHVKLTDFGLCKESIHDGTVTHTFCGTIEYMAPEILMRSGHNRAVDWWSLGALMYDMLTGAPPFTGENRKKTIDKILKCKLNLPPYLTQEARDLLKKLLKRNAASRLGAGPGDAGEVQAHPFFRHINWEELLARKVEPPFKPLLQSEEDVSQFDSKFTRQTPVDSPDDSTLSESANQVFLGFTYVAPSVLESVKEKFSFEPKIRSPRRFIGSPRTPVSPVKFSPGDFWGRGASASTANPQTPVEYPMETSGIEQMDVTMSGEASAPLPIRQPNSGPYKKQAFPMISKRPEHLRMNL
The target in data set [8] is Serine/threonine-protein kinase PAK 1 (Homo sapiens, UniProt Q13153). Kind of data set: Inhibition of PAK1.
The nature of data set [9]: Inhibition of PKA.
Data set [10] is described as follows: Inhibition of RSK.
The target in a further data set is T1, Cytochrome P450 1A2 (Homo sapiens, UniProt P05177).
T1 sequence (P05177 whole entry): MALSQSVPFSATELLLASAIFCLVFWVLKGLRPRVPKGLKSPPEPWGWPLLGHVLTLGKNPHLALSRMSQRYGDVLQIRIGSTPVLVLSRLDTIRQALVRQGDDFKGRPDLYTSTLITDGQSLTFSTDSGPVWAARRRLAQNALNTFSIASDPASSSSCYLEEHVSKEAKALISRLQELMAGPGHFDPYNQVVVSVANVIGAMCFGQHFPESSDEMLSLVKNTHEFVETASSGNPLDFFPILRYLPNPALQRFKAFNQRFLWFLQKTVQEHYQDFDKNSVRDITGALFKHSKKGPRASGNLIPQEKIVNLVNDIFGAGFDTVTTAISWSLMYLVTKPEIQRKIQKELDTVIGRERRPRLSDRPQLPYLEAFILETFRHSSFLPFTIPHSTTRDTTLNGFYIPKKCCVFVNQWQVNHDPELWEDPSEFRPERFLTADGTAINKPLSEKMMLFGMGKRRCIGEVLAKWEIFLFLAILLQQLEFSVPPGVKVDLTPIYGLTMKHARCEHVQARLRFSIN
Kind of data set: Inhibition of CYP1A2. The class given is ADME.

For a further data set, the target named is Cytochrome P450 2C19 (Homo sapiens, UniProt P33261). Kind of data set: Inhibition of CYP2C19. Format: ADME.
Cytochrome P450 2C19, sequence (P33261 whole entry): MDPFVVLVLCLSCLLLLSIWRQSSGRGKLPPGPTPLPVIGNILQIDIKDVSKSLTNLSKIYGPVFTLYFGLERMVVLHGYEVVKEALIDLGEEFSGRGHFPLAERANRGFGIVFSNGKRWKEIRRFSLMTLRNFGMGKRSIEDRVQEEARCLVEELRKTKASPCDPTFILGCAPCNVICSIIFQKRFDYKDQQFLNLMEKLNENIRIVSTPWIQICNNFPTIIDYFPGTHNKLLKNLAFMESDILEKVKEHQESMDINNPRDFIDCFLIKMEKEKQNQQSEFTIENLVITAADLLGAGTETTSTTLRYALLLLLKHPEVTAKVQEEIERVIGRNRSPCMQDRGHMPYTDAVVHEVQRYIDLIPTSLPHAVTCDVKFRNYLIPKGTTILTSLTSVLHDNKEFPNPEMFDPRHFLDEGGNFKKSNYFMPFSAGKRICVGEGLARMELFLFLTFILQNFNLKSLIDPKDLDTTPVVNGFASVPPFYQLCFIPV
A further data set concerns the target Cytochrome P450 2D6 (Homo sapiens, UniProt P10635). Kind of data set: Inhibition of CYP2D6. The class given is ADME.
Data set [11] deals with Mus musculus. Kind of data set: Inhibition of GSK3-beta phosphorylation in human BT474 cell xenografted SCID mouse at 50 mg/kg, ip. The following applies: BT-474, ip, route intraperitoneal. Format: functional.
The subject of data set [12] is Mus musculus. Kind of data set: Inhibition of GSK3-beta phosphorylation in human BT474 cell xenografted SCID mouse at 12.5 mg/kg, ip. Format: functional, organism-based. On the set-up: dose 12.5 mg/kg. Particulars: BT-474. On the technique in general: Xenograft models place foreign cells or tissue in a host animal.
Data set [13] concerns Mus musculus. Description: Inhibition of GSK3-beta phosphorylation in human BT474 cell xenografted SCID mouse at 25 mg/kg, ip. Format: functional, organism-based. Set-up: dose 25 mg/kg. Particulars: BT-474.
Data set [14] can be described thus: Drug level in tumor of human BT474 cells xenografted in SCID mouse at 50 mg/kg, ip. The class given is ADME, organism-based, Neoplasm, BT-474. On the set-up: dose 50 mg/kg, route intraperitoneal. Particulars: in vivo.

RAC-beta serine/threonine-protein kinase, sequence (P31751 whole entry): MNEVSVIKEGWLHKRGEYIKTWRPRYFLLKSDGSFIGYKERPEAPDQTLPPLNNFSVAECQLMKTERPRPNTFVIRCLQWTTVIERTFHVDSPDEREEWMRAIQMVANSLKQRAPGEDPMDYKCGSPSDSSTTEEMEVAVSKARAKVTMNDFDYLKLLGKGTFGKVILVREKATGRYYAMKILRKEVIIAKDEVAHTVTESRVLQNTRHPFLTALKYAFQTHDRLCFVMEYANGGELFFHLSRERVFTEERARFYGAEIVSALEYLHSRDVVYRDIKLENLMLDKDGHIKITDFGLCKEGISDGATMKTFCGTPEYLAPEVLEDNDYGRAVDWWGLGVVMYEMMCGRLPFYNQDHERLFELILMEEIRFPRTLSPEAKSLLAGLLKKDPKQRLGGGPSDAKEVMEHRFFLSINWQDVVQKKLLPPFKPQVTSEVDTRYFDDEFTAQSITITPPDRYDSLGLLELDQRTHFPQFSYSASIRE
Cytochrome P450 2D6, sequence (P10635 whole entry): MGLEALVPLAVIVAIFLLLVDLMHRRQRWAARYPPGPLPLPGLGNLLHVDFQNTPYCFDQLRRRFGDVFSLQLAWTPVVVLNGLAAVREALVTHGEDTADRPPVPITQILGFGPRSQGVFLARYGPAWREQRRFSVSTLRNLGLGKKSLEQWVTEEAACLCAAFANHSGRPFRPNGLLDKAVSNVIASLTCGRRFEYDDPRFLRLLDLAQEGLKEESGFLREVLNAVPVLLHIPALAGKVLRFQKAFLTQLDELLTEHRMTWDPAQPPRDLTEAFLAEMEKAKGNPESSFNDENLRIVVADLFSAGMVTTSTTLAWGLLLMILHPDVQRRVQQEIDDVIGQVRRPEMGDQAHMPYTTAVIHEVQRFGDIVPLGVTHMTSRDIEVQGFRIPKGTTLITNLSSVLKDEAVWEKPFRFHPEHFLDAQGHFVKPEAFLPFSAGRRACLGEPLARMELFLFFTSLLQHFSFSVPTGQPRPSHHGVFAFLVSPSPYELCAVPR

The IC50 is the midpoint of a concentration-inhibition curve. A low value points to inhibition by little substance. Turning to `Cc1n[nH]c2cnc(-c3cc(OC[C@@H](N)Cc4c[nH]c5ccccc45)cnc3-c3ccoc3)cc12`, the half-maximal inhibitory concentration (IC50) in data set [1] was determined as 1 nM; in data set [2], 6 nM; in [3], 1 nM; in the data set with BT-474, 750 nM; with LNCaP, 230 nM; in the data set with HFF it was 6500 nM. The molecule also registered an IC50 against Cytochrome P450 3A4 of 16 nM. For the same molecule, the fraction unbound in [4] was 0.057.
What is called solubility is how much of the substance goes into solution per volume. Read a high solubility as a readily soluble substance. With `Cc1n[nH]c2cnc(-c3cc(OC[C@@H](N)Cc4c[nH]c5ccccc45)cnc3-c3ccoc3)nc12`, the half-maximal inhibitory concentration (IC50) amounted to 1 nM in [1]; 31 nM in data set [2]; 15 nM in data set [3]; 640 nM in the data set on BT-474; 540 nM in the data set on LNCaP; 30000 nM in the data set on HFF. The same molecule gave an IC50 against Cytochrome P450 3A4 of 1300 nM. The amount in solution in data set [5] (solubility) came to 205 µM (≈ 95.4 µg/mL). Also, the fraction unbound in data set [4] was 0.155.
Take `Cc1n[nH]c2ccc(-c3cc(OC[C@@H](N)Cc4c[nH]c5ccccc45)cnc3-c3ccoc3)nc12`: the IC50 in data set [1] came to 12 nM; with BT-474 it was 2100 nM; with LNCaP it was 830 nM; in the data set on HFF, 30000 nM; on Cytochrome P450 3A4, 100 nM. The same molecule showed a solubility in data set [5] of 225 µM (≈ 105 µg/mL). The fraction unbound in data set [4] is 0.069.
For the molecule `Cc1[nH]nc2ccc(-c3cc(OC[C@@H](N)Cc4c[nH]c5ccccc45)cnc3-c3ccoc3)cc12`, the IC50 in data set [1] came out at 1 nM; in data set [2] it was 12 nM; in data set [3], 1 nM; in the data set on BT-474, 340 nM; in the data set with LNCaP, 190 nM; in the data set on HFF, 5500 nM. For the same molecule, the 50% inhibitory concentration (IC50) stood at 1580 nM in data set [6]; 7 nM in data set [7]; 31 nM in data set [8]; 1 nM in data set [9]; 25 nM in data set [10]; 50000 nM against Cytochrome P450 1A2. For the same molecule, the results for the IC50 against Cytochrome P450 2C19, against Cytochrome P450 2D6 and at Cytochrome P450 3A4 were 2000 nM, 5000 nM and 50 nM, respectively. The solubility in data set [5] is 52 µM (≈ 24.1 µg/mL). Besides, in [4], the fraction unbound was 0.041.
By inhibition in vivo is commonly meant the drop in the measured response relative to a control, in per cent. On to `Cc1n[nH]c2ncc(-c3cc(OC[C@@H](N)Cc4c[nH]c5ccccc45)cnc3-c3ccoc3)nc12`, for which the half-inhibitory concentration (IC50) was 2 nM in [1]; 39 nM in data set [2]; 10 nM in data set [3]; 370 nM with BT-474; 96 nM in the data set on LNCaP; 14300 nM with HFF. Moreover, on Cytochrome P450 3A4, the concentration for half-maximal inhibition (IC50) turned out to be 400 nM. For the same molecule, in data set [5], the concentration in solution (solubility) came to 200 µM (≈ 93.1 µg/mL). The same molecule yielded an inhibition in vivo at 50 mg/kg in the data set on Mus musculus [11] of 80%. The result with Mus musculus [12] and in the data set with Mus musculus [13] was inactive. In data set [14], this molecule displayed a Drug uptake of 3798 ng/mL. Further, the fraction unbound in data set [4] is 0.091.
For `Cc1n[nH]c2ncc(-c3cc(OC[C@@H](N)Cc4c[nH]c5ccccc45)cnc3-c3ccoc3)cc12`, the IC50 in data set [1] was 1 nM; in the data set with BT-474, 300 nM; with LNCaP, 85 nM; in the data set on HFF, 6600 nM; against Cytochrome P450 3A4 it was 200 nM. The solubility in [5] worked out at 108 µM (≈ 50.2 µg/mL). In [4], the fraction unbound was 0.047.
